Measured values as given in ChEMBL document CHEMBL5674860, “Optimized Dual-Glo Assay to identify co-culture-induced drug vulnerabilities in 3D CRC models” (2024).

Tests used:
Assay type in all cases: functional, Homo sapiens
Parameters in all cases: dose or concentration left out as unconfirmed
[1] = tested on: Colon cancer organoid; test: Optimized Dual-Glo assay to identify co-culture induced drug vulnerabilities using donated chemical probes and chemogenomics kinase set in O06 CRC organoid and F06 CAF mono and co-culture. […] Cell viability is reported both mono and co-culture models.
[2] = tested on: Colon cancer organoid; test: Optimized Dual-Glo assay to identify co-culture induced drug vulnerabilities using donated chemical probes and chemogenomics kinase set in O20 CRC organoid and F20 CAF mono and co-culture. […] Cell viability is reported both mono and co-culture models.
[3] = tested on: Colon cancer organoid; test: Optimized Dual-Glo assay to identify co-culture induced drug vulnerabilities using donated chemical probes and chemogenomics kinase set in O14 CRC organoid and F14 CAF mono and co-culture. […] Cell viability is reported both mono and co-culture models.
[4] = Culture type Co-Culture, Transduced with Lucferase2-P2A-EGFP lentivirus
[5] = Culture type Co-Culture, Transduced with Renilla-dsRed lentivirus
[6] = Culture type Mono-Culture, Transduced with Lucferase2-P2A-EGFP lentivirus
[7] = Culture type Mono-Culture, Transduced with Renilla-dsRed lentivirus

Row | SMILES | Cell Viability [1, 4] [%] | Cell Viability [1, 5] [%] | Cell Viability [1, 6] [%] | Cell Viability [1, 7] [%] | Cell Viability [2, 4] [%] | Cell Viability [2, 5] [%] | Cell Viability [2, 6] [%] | Cell Viability [2, 7] [%] | Cell Viability [3, 4] [%] | Cell Viability [3, 5] [%] | Cell Viability [3, 6] [%] | Cell Viability [3, 7] [%]
1 | Cc1cc2c(-c3ccco3)cnc(N[C@@H]3CCN(C)C[C@H]3C(=O)NC3CCCCC3)c2[nH]c1=O [GSK789] | 76.5976 | 134.369 | 59.8107 | 179.691 | 33.945 | 125.83 | 39.8308 | 103.931 | 80.165 | 245.195 | 48.5278 | 143.743
2 | C[C@@H](NC(=O)Nc1cc2[nH]ncc2c(CO)n1)c1ccccc1 [ERKi] | 117.766 | 104.277 | 23.2555 | 96.7542 | 50.0756 | 135.339 | 64.2382 | 68.0141 | 33.887 | 108.528 | 11.5857 | 66.9878
3 | C=CC(=O)Nc1ccc2[nH]c(=O)n(C3CCN(Cc4ccc(-c5nc6cc[nH]c(=O)c6cc5-c5ccccc5)cc4)CC3)c2c1 [Borussertib] | 51.8578 | 132.383 | 55.1299 | 71.4174 | 47.4641 | 149.193 | 22.6881 | 97.2977 | 51.6115 | 159.043 | 54.7811 | 69.4418
4 | CC(C)(C)c1cc(NC(=O)Nc2ccc(-c3cn4c(n3)sc3cc(OCCN5CCOCC5)ccc34)cc2)no1 [QUIZARTINIB] | 26.1053 | 134.448 | 20.7828 | 88.706 | 58.7644 | 111.29 | 48.0043 | 98.7475 | 40.6861 | 210.95 | 46.4384 | 89.2922
5 | O=C(NCCN1CCOCC1)c1ccc2c(c1)C(=O)c1ccc(Nc3ccc(F)c(NC(=O)c4ccccc4)c3)cc1CC2 [FS-694] | 67.8661 | 67.282 | 66.9088 | 83.7797 | 66.004 | 119.038 | 94.4809 | 79.2545 | 102.563 | 98.243 | 144.079 | 81.8914
6 | Cc1ccc2nc(CNCCCOc3ccccc3)cc(O)c2c1 [UCSF924] | 107.729 | 156.395 | 110.04 | 105.774 | 114.798 | 125.381 | 97.5529 | 90.0539 | 83.703 | 116.782 | 86.6693 | 107.391
7 | CCc1cc2cc(NS(=O)(=O)c3ccc(C#N)cc3)ccc2n(CC)c1=O | 88.2132 | 102.933 | 126.115 | 101.813 | 195.321 | 99.0217 | 112.066 | 92.4545 | 89.9895 | 94.6782 | 98.1459 | 101.615
8 | Cl.Cl.NC1(c2ccc(-c3nc4ccn5c(=O)[nH]nc5c4cc3-c3ccccc3)cc2)CCC1 | 52.26 | 91.614 | 79.8603 | 69.8373 | 44.0229 | 145.22 | 34.39 | 114.515 | 42.2425 | 103.472 | 90.3868 | 88.3443
9 | CC(C)S(=O)(=O)c1ccc2nccc(Nc3ccc4scnc4c3)c2c1 | 84.0973 | 95.5761 | 123.937 | 111.512 | 145.741 | 98.2209 | 115.329 | 92.1603 | 101.708 | 94.4181 | 92.6068 | 100.536
